In PMC6245281, “Cytotoxic Steroidal Saponins from the Flowers of Allium leucanthum” (Molecules, 2008):

Tests used:
Type in all cases: cell-based
[1] = test system: colon adenocarcinoma (DLD-1) cell line; test: Cytotoxicity assay (resazurin reduction test), DLD-1; details: Homo sapiens, DLD-1 cells, 48 h incubation, read-out: IC50 (μM ± SD) DLD-1
Description: (§1) Lung carcinoma (A549), colon adenocarcinoma (DLD-1) and normal skin fibroblast (WS1) human cell lines were purchased from the American Type Culture Collection (ATCC). All cell lines were cultured in minimum essential medium containing Earle’s salts and L-glutamine (Mediatech Cellgro, VA), to which 10% fetal bovine serum (Hyclone), vitamins (1X), penicillin (100 I.U./mL), streptomycin (100 μg/ml), essential amino acids (1X) and sodium pyruvate (1X) (Mediatech Cellgro, VA) were added. Cells were kept at 37°C in a humidified environment containing 5% CO2.
(§2) Exponentially growing cells were plated at a density of 5 × 10^3 cells per well in 96-well microplates (Costar, Corning inc.) in 100 µl of culture medium and were allowed to adhere for 16 hours before treatment. Then, 100 µl of increasing concentrations of extract or pure compounds dissolved in culture medium and DMSO (Sigma-Aldrich) were added. The final concentration of solvent in the culture medium was maintained at 0.25% (v/v) to avoid solvent toxicity. Cells were incubated for 48 h in the absence or in the presence of extract. Cytotoxicity was assessed using the resazurin reduction test as described by O’Brien) Fluorescence was measured on an automated 96-well Fluoroskan Ascent Fl plate reader (Labsystems) using an excitation wavelength of 530 nm and an emission wavelength of 590 nm. Cytotoxicity was expressed as the concentration of extract or compound inhibiting cell growth by 50% (IC50).

[2] = test system: lung carcinoma (A549) cell line; test: Cytotoxicity assay (resazurin reduction test), A549; details: Homo sapiens, A549 cells, 48 h incubation, read-out: IC50 (μM ± SD) A549
Description: as §1, §2

[3] = test system: normal skin fibroblast (WS1) cell line; test: Cytotoxicity assay (resazurin reduction test), WS1; details: Homo sapiens, WS1 healthy cells, 48 h incubation, read-out: IC50 (μM ± SD) WS1
Description: as §1, §2

SMILES	IC50 [1] [µM]	IC50 [2] [µM]	IC50 [3] [µM]
O=c1[nH]cc(F)c(=O)[nH]1 [5-fluorouracil, reference compound]	11 ± 2	48 ± 18	20 ± 2
CC1CCC2(OC1)OC1CC3C4CC(O)C5CC(OC6OC(CO)C(OC7OC(CO)C(O)C(OC8OCC(O)C(O)C8O)C7OC7OC(CO)C(O)C(O)C7O)C(O)C6O)C(O)CC5(C)C4CCC3(C)C1C2C (centres unmarked) [Aginoside (3), aginoside]	7.9 ± 0.5	5.8 ± 0.9	3.6 ± 0.2
C[C@@H]1CC[C@@]2(OC1)O[C@H]1C[C@H]3[C@@H]4C[C@@H](O)[C@H]5C[C@@H](O[C@@H]6O[C@H](CO)[C@H](O[C@@H]7O[C@H](CO)[C@@H](O)[C@H](O[C@@H]8OC[C@@H](O)[C@H](O)[C@H]8O)[C@H]7O[C@@H]7O[C@H](CO)[C@@H](O)[C@H](O)[C@H]7O)[C@H](O)[C@H]6O)CC[C@]5(C)[C@H]4CC[C@]3(C)[C@H]1[C@@H]2C [Compound 4, (25R)-5α-spirostane-3β,6β-diol 3-O-β-D-glucopyranosyl-(1→2)-[β-D-xylopyranosyl-(1→3)]-β-D-glucopyranosyl-(1→4)-β-D-galactopyranoside]	13 ± 1	9 ± 1	3.1 ± 0.1
C[C@@H]1CC[C@@]2(OC1)O[C@H]1C[C@H]3[C@@H]4C[C@@H](O)[C@H]5C[C@@H](O[C@@H]6O[C@H](CO)[C@H](O[C@@H]7O[C@H](CO)[C@@H](O)[C@H](O)[C@H]7O[C@@H]7O[C@H](CO)[C@@H](O)[C@H](O)[C@H]7O)[C@H](O)[C@H]6O)[C@H](O)C[C@]5(C)[C@H]4CC[C@]3(C)[C@H]1[C@@H]2C [Compound 6, (25R)-5α-spirostane-2α,3β,6β-triol 3-O-β-D-glucopyranosyl-(1→2)-β-D-glucopyranosyl-(1→4)-β-D-galactopyranoside]	22 ± 2	22 ± 2	14.5 ± 0.5
C[C@@H]1CC[C@@]2(OC1)O[C@H]1C[C@H]3[C@@H]4C[C@@H](O)[C@H]5C[C@@H](O[C@@H]6O[C@H](CO)[C@H](O[C@@H]7O[C@H](CO)[C@@H](O)[C@H](O[C@@H]8O[C@H](CO)[C@@H](O)[C@H](O)[C@H]8O)[C@H]7O[C@@H]7O[C@H](CO)[C@@H](O)[C@H](O[C@@H]8O[C@H](CO)[C@@H](O)[C@H](O)[C@H]8O)[C@H]7O)[C@H](O)[C@H]6O)CC[C@]5(C)[C@H]4CC[C@]3(C)[C@H]1[C@@H]2C [Compound 7, (25R)-5α-spirostane-3β,6β-diol 3-O-β-D-glucopyranosyl-(1→3)-β-D-glucopyranosyl-(1→2)-[β-D-glucopyranosyl-(1→3)]-β-D-glucopyranosyl-(1→4)-β-D-galactopyranoside]	8.9 ± 0.2	7.8 ± 0.4	7.7 ± 0.2
CC1CCC2(OC1)OC1CC3C4CC(O)C5CC(OC6OC(CO)C(OC7OC(CO)C(O)C(OC8OC(CO)C(O)C(O)C8O)C7OC7OC(CO)C(O)C(O)C7O)C(O)C6O)CCC5(C)C4CCC3(C)C1C2C (centres unmarked) [Eruboside B (2), eruboside B]	8.2 ± 0.4	5.3 ± 0.5	3.6 ± 0.2
COc1cc([C@@H]2c3cc4c(cc3[C@@H](O[C@@H]3O[C@@H]5CO[C@@H](C)O[C@H]5[C@H](O)[C@H]3O)[C@H]3COC(=O)[C@H]23)OCO4)cc(OC)c1O [Etoposide, reference compound]	4.8 ± 0.8	1.1 ± 0.1	
C[C@@H]1CC[C@@]2(OC1)O[C@H]1C[C@H]3[C@@H]4C[C@@H](O)[C@H]5C[C@@H](O[C@@H]6O[C@H](CO)[C@H](O[C@@H]7O[C@H](CO)[C@@H](O)[C@H](O[C@@H]8O[C@H](CO)[C@@H](O)[C@H](O)[C@H]8O)[C@H]7O[C@@H]7O[C@H](CO)[C@@H](O)[C@H](O[C@@H]8O[C@H](CO)[C@@H](O)[C@H](O)[C@H]8O)[C@H]7O)[C@H](O)[C@H]6O)[C@H](O)C[C@]5(C)[C@H]4CC[C@]3(C)[C@H]1[C@@H]2C [Leucospiroside A (5), (25R)-5α-spirostane-2α,3β,6β-triol 3-O-β-glucopyranosyl-(1→3)-β-glucopyranosyl-(1→2)-[β-glucopyranosyl-(1→3)]-β-glucopyranosyl-(1→4)-β-galactopyranoside]	7.2 ± 0.1	5 ± 0.1	4.55 ± 0.07
CC1CCC2(OC1)OC1CC3C4CC(O)C5CC(OC6OC(CO)C(OC7OC(CO)C(O)C(OC8OC(CO)C(O)C(O)C8O)C7OC7OC(CO)C(O)C(O)C7O)C(O)C6O)C(O)CC5(C)C4CCC3(C)C1C2C (centres unmarked) [Yayoisaponin C (1), yayoisaponin C]	5.6 ± 0.2	3.7 ± 0.7	3 ± 0.2
